Among the data in PubChem BioAssay (NCI) are TGI and GI50 values, retold here.

Each structure is given as a SMILES string. Several values for one entry are separate records, joined by “and”; a condition that tells them apart may be missing. Equal values may be shown once.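 Values below derive from 48-hour exposures of cells grown in 96-well plates, with endpoints linearly interpolated between the two concentrations bracketing the appropriate inhibition level. GI50 = concentration required for 50% inhibition of growth. TGI is the concentration that stops growth completely.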

Some test systems named below: NCI/ADR-RES ovarian; U251 CNS; SNB-19 CNS; A549 NSCLC; HOP-62 NSCLC; NCI-H460 lung; UACC-62 melanoma; HCT-15 colon; MCF7 breast; UO-31 renal.
Holding throughout (test): inhibition of tumour cell growth, NCI panel, 48 h

As to `S=c1[nH]nc(Cc2ccccc2)c(=S)[nH]1`, the TGI in the assay with NCI/ADR-RES ovarian was over 100 µM; in the assay with U251 CNS, over 100 µM; in the assay with SNB-19 CNS, over 100 µM; with A549 NSCLC, over 100 µM; in the assay on HOP-62 NSCLC, over 100 µM; in the assay on NCI-H460 lung, over 93.7 µM. Further, the TGI in the assay with UACC-62 melanoma was over 50.1 µM; with HCT-15 colon it was over 100 µM; in the assay on MCF7 breast, over 100 µM; in the assay with UO-31 renal it was over 100 µM.

On to `NC1=NC(c2ccc(Cl)cc2)N(c2ccc(S(N)(=O)=O)cc2)C(N)=N1` (centres undefined), for which the TGI in the assay on NCI/ADR-RES ovarian, with U251 CNS, in the assay on SNB-19 CNS, in the assay with A549 NSCLC, in the assay on HOP-62 NSCLC and with NCI-H460 lung was over 100 µM in each case. Besides, the TGI in the assay on UACC-62 melanoma, in the assay on HCT-15 colon, in the assay with MCF7 breast and with UO-31 renal was over 100 µM in each case.

As for `COc1cccc(-c2nn(-c3ccccc3)cc2-c2ccnc(NCCNC(=O)Nc3cccc(C(F)(F)F)c3)c2)c1`, the GI50 in the assay with NCI/ADR-RES ovarian is 2.22 µM; in the assay on U251 CNS it was 2.28 µM; in the assay on SNB-19 CNS, 3.12 µM; with A549 NSCLC it was 3.38 µM; in the assay on HOP-62 NSCLC it was 2.52 µM; with NCI-H460 lung, 2 µM. Moreover, the GI50 in the assay with UACC-62 melanoma was 1.85 µM; with HCT-15 colon it was 1.7 µM; in the assay with MCF7 breast, 2.07 µM; with UO-31 renal it was 1.6 µM. The TGI came out at 5.82 µM in the assay on NCI/ADR-RES ovarian; 5.26 µM with U251 CNS; 11.9 µM in the assay with SNB-19 CNS; 11.5 µM in the assay on A549 NSCLC; 5.63 µM with HOP-62 NSCLC; 3.85 µM in the assay on NCI-H460 lung. The TGI stood at 3.73 µM in the assay on UACC-62 melanoma, 3.71 µM in the assay with HCT-15 colon, 4.89 µM in the assay on MCF7 breast and 4.15 µM in the assay on UO-31 renal.

With `Cc1ccc(C(NC(=O)c2ccccc2)c2ccc3cccnc3c2O)cc1` (centres undefined), the GI50 with NCI/ADR-RES ovarian is 0.189 µM; in the assay with U251 CNS it was 0.249 µM; in the assay on SNB-19 CNS, 0.492 µM; in the assay with A549 NSCLC, 0.379 µM; in the assay with HOP-62 NSCLC it was 0.487 µM; with NCI-H460 lung it was 0.26 µM. The GI50 in the assay on UACC-62 melanoma is 0.236 µM; with HCT-15 colon it was 0.24 µM; in the assay with MCF7 breast, 0.365 µM; with UO-31 renal it was 0.198 µM. Also, the TGI was 18.4 µM in the assay with U251 CNS; over 100 µM with SNB-19 CNS; 12.7 µM with A549 NSCLC; over 41.6 µM with HOP-62 NSCLC; 3.08 µM in the assay on NCI-H460 lung; 0.763 µM with UACC-62 melanoma. Besides, the TGI with HCT-15 colon was over 91.2 µM; with MCF7 breast, over 47.3 µM; in the assay on UO-31 renal, 1.19 µM.

For `COc1ccc(C(c2ccc(OCCN(C)C)cc2)c2cc3ccccc3c3ccccc23)cc1` (centres undefined), the GI50 in the assay with NCI/ADR-RES ovarian is 1.71 µM; with U251 CNS, 1.57 µM; with SNB-19 CNS, 1.72 µM; in the assay on A549 NSCLC it was 1.66 µM; in the assay with HOP-62 NSCLC, 1.54 µM; in the assay with NCI-H460 lung it was 1.79 µM. For the same molecule, the GI50 is 1.81 µM in the assay on UACC-62 melanoma, 1.28 µM with HCT-15 colon, 1.81 µM with MCF7 breast and 1.49 µM in the assay with UO-31 renal. For the same molecule, the TGI with NCI/ADR-RES ovarian was determined as 3.39 µM; in the assay with U251 CNS, 2.92 µM; with SNB-19 CNS it was 3.31 µM; in the assay on A549 NSCLC, 3.06 µM; with HOP-62 NSCLC, 3.07 µM; with NCI-H460 lung it was 3.29 µM. Also, the TGI in the assay on UACC-62 melanoma was determined as 3.52 µM; in the assay on HCT-15 colon, 2.69 µM; with MCF7 breast, 3.61 µM; in the assay with UO-31 renal, 2.9 µM.

Turning to `CN(Cc1cccc(F)c1)c1ccc(CO)c(Cl)c1`, the GI50 is 17.5 µM in the assay on NCI/ADR-RES ovarian; 4.57 µM in the assay on U251 CNS; 32.8 µM in the assay on SNB-19 CNS; 4.91 µM with A549 NSCLC; 4.84 µM in the assay on HOP-62 NSCLC; 1.28 µM in the assay on NCI-H460 lung. Besides, the GI50 with UACC-62 melanoma was 0.288 µM; in the assay on HCT-15 colon, 17.7 µM; in the assay with MCF7 breast, 1.03 µM; with UO-31 renal, 10.3 µM. Also, the TGI is 58 µM with NCI/ADR-RES ovarian; 30.6 µM with U251 CNS; over 100 µM in the assay with SNB-19 CNS; 37 µM in the assay with A549 NSCLC; 47.8 µM in the assay with HOP-62 NSCLC; 13.5 µM in the assay on NCI-H460 lung. For the same molecule, the TGI with UACC-62 melanoma was 2.42 µM; with HCT-15 colon it was over 83.2 µM; in the assay with MCF7 breast it was 26.3 µM; with UO-31 renal, 75.5 µM.

On to `CC1=C(/C=C/C(C)=C/C=C/C(C)=C/C=N/NC(=S)NC(=S)N/N=C/C=C(C)/C=C/C=C(C)/C=C/C2=C(C)CCCC2(C)C)C(C)(C)CCC1`, for which the GI50 in the assay on NCI/ADR-RES ovarian was 1.76 µM and 1.56 µM; in the assay with U251 CNS it was 2.17 µM and 1.58 µM; with SNB-19 CNS it was 5.25 µM and 4.15 µM; with A549 NSCLC, 5.4 µM and 3.79 µM; with HOP-62 NSCLC, 3.84 µM and 2.42 µM; with NCI-H460 lung it was 2.35 µM and 1.66 µM. The GI50 in the assay with UACC-62 melanoma is 1.48 µM and 0.89 µM; in the assay on HCT-15 colon, 2.68 µM and 1.89 µM; in the assay with MCF7 breast, 2.38 µM and 1.83 µM; in the assay with UO-31 renal it was 1.84 µM and 1.52 µM. The TGI in the assay with NCI/ADR-RES ovarian is 6.61 µM and 5.46 µM; in the assay with U251 CNS it was 7.18 µM and 4.62 µM; with SNB-19 CNS, 11.6 µM and 12 µM; in the assay with A549 NSCLC, 12.7 µM and 10.8 µM; in the assay on HOP-62 NSCLC, 11.3 µM and 5 µM; in the assay on NCI-H460 lung, 8.68 µM and 6.36 µM. Moreover, the TGI was 6.09 µM and 2.43 µM in the assay with UACC-62 melanoma; 9.82 µM and 8.2 µM with HCT-15 colon; 12.5 µM and 7.5 µM in the assay with MCF7 breast; 8.94 µM and 7.32 µM in the assay on UO-31 renal.

Turning to `COc1cc(-c2cc(-c3ccc(Nc4ccnc5cc(Cl)ccc45)cc3)nc(N3CCOCC3)n2)cc(OC)c1OC`, the GI50 in the assay on NCI/ADR-RES ovarian was 2.3 µM; with U251 CNS, 1.62 µM; with SNB-19 CNS, 2.36 µM; in the assay with A549 NSCLC it was 1.76 µM; in the assay on HOP-62 NSCLC, 1.95 µM; in the assay on NCI-H460 lung, 1.87 µM. For the same molecule, the GI50 with UACC-62 melanoma was 1.98 µM; with HCT-15 colon it was 1.52 µM; in the assay with MCF7 breast, 0.755 µM; in the assay with UO-31 renal it was 1.57 µM. For the same molecule, the TGI amounted to 7.26 µM in the assay on NCI/ADR-RES ovarian; 3.12 µM in the assay with U251 CNS; 5.28 µM in the assay on SNB-19 CNS; 3.47 µM in the assay with A549 NSCLC; 4.09 µM in the assay with HOP-62 NSCLC; 3.89 µM in the assay with NCI-H460 lung. In addition, the TGI in the assay with UACC-62 melanoma worked out at 3.83 µM; in the assay on HCT-15 colon it was 3.58 µM; in the assay on MCF7 breast, 3.26 µM; in the assay on UO-31 renal, 3.11 µM.
